Structures can show the parent of a compound that is named as a salt.
Tests used:
[1] = system: LI90 cells, a human hepatic stellate cell line; assay: Inhibitory effect on collagen synthesis (in vitro); assay type: cell-based; conditions: in the presence of recombinant human TGF-β1, 3H-proline labelled collagen in supernatant
Protocol: Inhibitory Effect on Collagen Synthesis (In Vitro)
LI90 cells, a human hepatic stellate cell line, were suspended in DMEM (Dulbecco's modified eagle medium) supplemented with 10% inactivated FBS (fetal bovine serum), seeded on a 12-well plate and cultured in a CO2 incubator (preset temperature: 37° C., preset CO2 concentration: 5%). After being cultured for 24 hours, the cells were washed with D-PBS (Dulbecco's phosphate buffered saline), placed in MEM (Eagle's minimum essential medium) supplemented with 0.1% inactivated FBS and then cultured in a CO2 incubator. After being cultured for 3 days, the cells were again washed with D-PBS, placed in MEM (Eagle's minimum essential medium) supplemented with 0.1% inactivated FBS and treated with or without a test compound in the presence of […] recombinant human TGF-β1 (transforming growth factor-β1) in a CO2 incubator for 16 hours. After the incubation, the cells were washed with D-PBS and the medium was replaced with MEM containing 0.25 mM ascorbate. A radio-labeled compound, ^3H-proline, was then added to the culture medium to radio-label the collagen proteins produced. After being cultured for 24 hours, the supernatant was collected and the collagen proteins were extracted from the supernatant as acid-soluble fractions. The amount of collagen produced was determined by measuring the radioactivity contained in the fractions. A concentration of test compound that produced 50% inhibition [IC50 value (nM)] on collagen synthesis was calculated by comparing the radioactivity count in a supernatant of test-compound-treated cells with that of untreated cells (control).

[2] = system: human hepatic cancer cells (HuH-7); assay: Antiproliferative effect on cancer cells (in vitro), sulforhodamine B method, HuH-7; assay type: cell-based; conditions: HuH-7 cells, 5 days incubation with test compound
Protocol: (§1) Growth inhibition of human hepatic cancer cells (HuH-7) was determined by the sulforhodamine B method based on the method of Skehan P. et al. (J Natl Cancer Inst. 1990 Jul. 4; 82(13): 1107-12). In the study, HuH-7 cells were seeded on DMEM medium containing 10% fetal bovine serum in a 96-well microplate. After 24-hour incubation at 37° C. in the presence of 5% carbon dioxide, the test compound was added and the cells were incubated for another 5 days. After incubation, a trichloroacetic acid solution was added to yield the final concentration of 10% and the cells were left to stand at 4° C. for 1 hour to fix. Then, the cells were washed with water to remove the medium and trichloroacetic acid and dried in the air. The dried cells were stored at 4° C. until they were stained with sulforhodamine B. To each well, 1% acetic acid solution containing 0.4% sulforhodamine B was added and left to stand for 20 to 30 minutes at room temperature. After discarding the supernatant, each well was washed with 1% acetic acid solution, and 10 mM Tris ([…]) solution was added while stirring to elute the dye taken into the cells. Then, the optical density was determined at the measurement wavelength of 492 nm and the reference wavelength of 690 nm, and the difference was calculated. The cell growth activity in each well was defined as the value determined by subtracting the OD in the control well not containing cells (the difference in absorbance between 492 nm and 690 nm) from that in the test well.
(§2) The 50% inhibitory concentration (IC50 (nM)) of the test compound was determined by comparing the cell growth activity in the well containing the test compound with that of the control not containing the test compound.

[3] = system: human pancreatic cancer cells (HPAC); assay: Antiproliferative effect on cancer cells (in vitro), sulforhodamine B method, HPAC; assay type: cell-based; conditions: 5 days incubation with test compound
Protocol: as §1, §2
The growth inhibition on human pancreatic cancer cells (HPAC) was also determined by the above method using HPAC instead of HuH-7 and RPMI 1640 medium containing 10% fetal bovine serum instead of the DMEM medium containing 10% fetal bovine serum.

[4] = system: human chronic myelocytic leukemia cells (KU812); assay: Antiproliferative effect on cancer cells (in vitro), WST-8 assay, KU812; assay type: cell-based; conditions: 5 days incubation with test compound
Protocol: The growth inhibition on human chronic myelocytic leukemia cells (KU812) was determined by a WST-8 assay according to the method of Singh A K, et al. (Cancer Lett. 1996 Oct. 1; 107(1): 109-15.). In this method, KU812 cells were seeded in RPMI 1640 medium containing 10% fetal bovine serum in a 96-well microplate and incubated at 37° C. for 24 hours in the presence of 5% carbon dioxide. Then, the test compound was added and the cells were incubated for another 5 days. After incubation, 15 μL of 5 mM WST-8 (2-(2-methoxy-4-nitrophenyl)-3-(4-nitrophenyl)-5-(2,4-disulfenyl)-2H-tetrazolium, monosodium salt) was added and the cells were incubated for 2 hours. After the 2-hour incubation, 15 μL of 1% SDS (sodium dodecyl sulfate) was added and the optical density was determined at the measurement wavelength of 450 nm and the reference wavelength of 630 nm, and the difference was calculated. The cell growth activity in each well was defined as the value determined by subtracting the OD in the control well not containing cells (the difference in absorbance between 492 nm and 690 nm) from that in the test well.
as §2

[5] = system: STAT3; assay: Inhibitory effect on IL-6-induced STAT3 phosphorylation in human myeloma cells (in vitro); assay type: cell-based; conditions: U266B1 human myeloma cells, IL-6 1 ng/mL, pSTAT3 (Y705) by flow cytometry
Protocol: The inhibitory effect of the test compound on phosphorylation of STAT3 (signal transducer and activator of transcription-3) in human myeloma cells ([…]) induced by interleukin-6 (IL-6) was examined using the modified method of Tochizawa S. et al. (J Immunol Methods. 2006 Jun. 30; 313(1-2): 29-37). In the study, U266B1 cells were seeded in an RPMI 1640 medium containing 10% fetal bovine serum (FBS) in a 12-well plate and incubated at 37° C. for 2 hours in the presence of carbon dioxide. After incubation, IL-6 was added to yield the concentration of 1 ng/mL and the cells were incubated at 37° C. for 15 minutes in the presence of 5% carbon dioxide. After fixation of the cells by the addition of a buffer containing formaldehyde (Lyse/Fix Buffer, BD Biosciences) at room temperature for 10 minutes, the suspension was centrifuged to remove the supernatant and the cells were treated with ice-cold methanol for 10 minutes to improve the permeability of the cell membrane. The cells were centrifuged to remove methanol and washed twice with Dulbecco's phosphate buffered saline (D-PBS) containing 2% fetal bovine serum (FBS). A fluorescence-labeled anti-phosphorylated STAT3 (pSTAT3) antibody (Alexa Fluor 488-labeled anti-pSTAT3 (Y705) antibody, BD Biosciences) was added for staining in an ice bath for 30 minutes.
The cells were washed once with 2% FBS-containing D-PBS and suspended in 2% FBS-containing D-PBS, and the fluorescence intensity was determined using a flow cytometer (FACS Sort, BD Biosciences). The ratio of fluorescence intensity in the test group to the control group (T/C) was determined from the difference in the geometric mean of pSTAT3 fluorescence intensity between the test compound group of each concentration and the non-stimulated control group according to the following equation by defining the difference in the geometric mean of pSTAT3 fluorescence intensity between the IL-6 induced control and the non-stimulated control as 100%. T/C(%)=([…] of pSTAT3 fluorescence intensity in the cells treated with the test compound—geometric mean of pSTAT3 fluorescence intensity in non-stimulated control)/(geometric mean of fluorescence intensity of IL-6-induced pSTAT3 in the control−geometric mean of pSTAT3 fluorescence intensity in non-stimulated control)×100.
The concentration of the test compound inhibiting phosphorylation of STATS at 50% (IC50; concentration of the test compound corresponding to 50% T/C(%)) was determined using T/C(%) values at the respective concentrations and defined as the index for the inhibitory activity.

[6] = system: Human hepatic cancer cells (HuH-7); assay: Antitumor effect on hepatic cancer cells, HuH-7 (in vivo); conditions: SCID mice bearing HuH-7 tumor, 10 mg/kg/day orally, once daily, 9 consecutive days; ratio of relative tumor volume treatment/control
Protocol: Human hepatic cancer cells (HuH-7) were transplanted in SCID mice (6 females/group) and the inhibitory effect of the invention on their growth was examined. In the study, 0.2 mL of a cell suspension adjusted to contain 2.5×10^7 cells/mL was injected subcutaneously in the right axilla to prepare tumor bearing mice. When the tumor diameter became 5 mm or more, the animals were allocated to groups based on the tumor volume. The test compound was administered orally as a suspension in 5% gum arabic, once daily, for 9 consecutive days. The control group received 5% gum arabic. Tumor volumes were measured on the following day of the last administration. The relative tumor volume was determined by calculating the ratio of the tumor volume on the following day of the last administration to that at group allocation. The ratio of the relative tumor volume in the treatment group to that in the control group (T/C %) was calculated as the index for the effect. Relative tumor volume=Tumor volume on the following day of the last administration/Tumor volume at group allocation. T/C %=(Mean relative tumor volume in the treatment group/Mean relative tumor volume in the control group)×100.

SMILES	IC50 [1]	IC50 ([2]; Homo sapiens, 120 h)	IC50 ([3]; Homo sapiens, 120 h)	IC50 ([4]; Homo sapiens, 120 h)	IC50 [5]	melting point	T/C % [6]	IC50 [2]	IC50 [3]	IC50 [4]
Br.CN(C(=O)c1ccc(C(F)(F)F)cc1)c1ccc(Oc2ccc3cc(C(=O)N4CCN(Cc5ccc(OCC(F)(F)F)cc5)CC4)n(C)c3c2)nc1 [Example 436, N-Methyl-N-[6-(1-methyl-2-{4-[4-(2,2,2-trifluoroethoxy)benzyl]-piperazine-1-carbonyl}-1H-indol-6-yloxy)pyridin-3-yl]-4-tri-fluoromethylbenzamide hydrobromide]	< 10 nM	< 10 nM	< 70 nM	< 2 nM	< 10 nM	225 to 226.4 °C	–	–	–	–
COc1ccc(CN2CCN(C(=O)c3cc4cc(Oc5ccc(N(C)C(=O)c6ccc(C(F)(F)F)cc6)cn5)ccc4n3C)CC2)cc1 [Example 338, N-(6-{2-[4-(4-Methoxybenzyl)piperazine-1-carbonyl]-1-methyl-1H-indol-5-yloxy}pyridin-3-yl)-N-methyl-4-trifluoromethylbenzamide maleate]	–	< 10 nM	< 70 nM	< 2 nM	< 10 nM	–	–	–	–	–
CC(C)Oc1ccc(CN2CCN(C(=O)c3cc4cc(Oc5ccc(N(C)C(=O)c6ccc(C(F)(F)F)cc6)cn5)ccc4n3C)CC2)cn1.O=C(O)/C=C\C(=O)O [Example 424, N-(6-{2-[4-(6-Isopropoxypyridin-3-ylmethyl)piperazine-1-carbonyl]-1-methyl-1H-indol-5-yloxy}pyridin-3-yl)-N-methyl-4-tri-fluoromethylbenzamide maleate]	< 10 nM	< 10 nM	< 70 nM	< 2 nM	–	157 to 159 °C	–	–	–	–
Cc1cc(C(F)(F)F)ccc1C(=O)Nc1ccc(Oc2ccc3cc(C(=O)N4CCN(Cc5ccc(OC(CF)CF)cc5)CC4)n(C)c3c2)nc1.Cl [Example 493, N-[6-(2-{4-[4-(2-Fluoro-1-fluoromethylethoxy)benzyl]piperazine-1-carbonyl}-1-methyl-1H-indol-6-yloxy)pyridin-3-yl]-2-methyl-4-tri-fluoromethylbenzamide hydrochloride]	–	–	–	–	< 10 nM	192.5 to 195.4 °C	<50%	–	–	–
Cc1c(Oc2ccc(N(C)C(=O)c3ccc(C(F)(F)F)cc3)cn2)ccc2c1cc(C(=O)N1CCN(Cc3ccc(C(C)C)cc3)CC1)n2C [Example 428, N-(6-{2-[4-(4-Isopropylbenzyl)piperazine-1-carbonyl]-1,4-dimethyl-1H-indol-5-yloxy}pyridin-3-yl)-N-methyl-4-trifluoro-methylbenzamide hydrobromide]	< 10 nM	–	–	–	–	–	–	< 10 nM	< 70 nM	< 2 nM
Br.CN(C(=O)c1ccc(C(F)(F)F)cc1)c1ccc(Oc2ccc3cc(C(=O)N4CCN(Cc5ccc(OC(CF)CF)cc5)CC4)n(C)c3c2)nc1 [Example 445, N-[6-(2-{4-[4-(2-Fluoro-1-fluoromethylethoxy)benzyl]piperazine-1-carbonyl}-1-methyl-1H-indol-6-yloxy)pyridin-3-yl]-N-methyl-4-tri-fluoromethylbenzamide hydrobromide]	–	–	–	–	< 10 nM	230.8 to 231.4 °C	<50%	–	–	–
CC(C)Oc1ccc(CN2CCN(C(=O)c3cc4ccc(Oc5ncc(N(C)C(=O)c6ccc(C(F)(F)F)cc6)cn5)cc4n3C)CC2)cc1.Cl [Example 521, N-(2-{2-[4-(4-Isopropoxybenzyl)piperazine-1-carbonyl]-1-methyl-1H-indol-6-yloxy}pyrimidin-5-yl)-N-methyl-4-trifluoromethyl-benzamide hydrochloride]	–	< 10 nM	< 70 nM	< 2 nM	–	–	<50%	–	–	–
Br.CC(C)Oc1ccc(CN2CCN(C(=O)c3cc4ccc(Oc5ccc(NC(=O)c6ccc(C(F)(F)F)cc6Cl)cn5)cc4n3C)CC2)cc1 [Example 253, 2-Chloro-N-(6-{2-[4-(4-isopropoxybenzyl)piperazine-1-carbonyl]-1-methyl-1H-indol-6-yloxy}pyridin-3-yl)-4-trifluoromethylbenzamide hydrobromide]	< 10 nM	< 10 nM	< 70 nM	< 2 nM	–	237.2 to 238.2 °C	–	–	–	–
